Consider twelve molecules from ChEMBL document CHEMBL1201862, “PubChem BioAssay data set” (2004).

Some test systems named below: A549; HCT-15; MDA-MB-435; SF-268; M14; K562; DU-145; CAKI-1; CCRF-CEM; OVCAR-5; RXF 393; NCI-H460; LOX IMVI; HOP-62; SF-539; U-251; MCF7; UACC-62; RPMI-8226.
Common to all, as to assay: NCI anticancer screen, dose series, 48 h

Molecules are shown by their SMILES.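 Where inhibition never reached the appropriate level, the endpoint shown equals the highest concentration tested. Otherwise, values were interpolated linearly from a five-concentration, 48-hour dose response in 96-well plates. Abbreviation: GI50, concentration required for 50% inhibition of growth.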 The source made the active and inactive calls. No stated cut-off is given here; in the data, active = GI50 up to about 1.1 µM and inactive = higher.

With `CCN(CC)c1nnc(CCCCCCCCc2nnc(N(CC)CC)o2)o1`, the GI50 is > 100 µM (inactive) in the assay with A549; > 100 µM with HCT-15; > 100 µM (inactive) in the assay on MDA-MB-435; > 100 µM (inactive) in the assay with SF-268; > 100 µM (inactive) in the assay with M14; > 100 µM (inactive) in the assay with K562. Besides, the GI50 with DU-145, in the assay on CAKI-1, in the assay with CCRF-CEM, in the assay on OVCAR-5, with RXF 393 and with NCI-H460 was > 100 µM (inactive) each time. Further, the GI50 in the assay with LOX IMVI, in the assay with HOP-62, with SF-539, with U-251 and with MCF7 was > 100 µM (inactive) throughout.
As for `CCOc1ncn(-c2ccc(NC(=S)Nc3cnccn3)cc2)n1`, the GI50 with A549 is > 10 µM (inactive); in the assay on HCT-15 it was > 10 µM; with MDA-MB-435 it was > 10 µM (inactive); in the assay with SF-268, > 10 µM (inactive); in the assay on M14, > 10 µM (inactive); in the assay on K562, > 10 µM (inactive). Besides, the GI50 with DU-145, in the assay with CCRF-CEM, with OVCAR-5, in the assay on UACC-62, in the assay with RXF 393 and in the assay on NCI-H460 was > 10 µM (inactive) in each case. The GI50 with SF-539, with U-251 and in the assay on MCF7 was > 10 µM (inactive) in each case.
Turning to `COC(=O)CC[N+]1=CCC(c2ccccc2)(c2ccccc2)O1`, the GI50 is > 100 µM (inactive) with A549; > 100 µM in the assay on HCT-15; 41.8 µM (inactive) with MDA-MB-435; > 100 µM (inactive) in the assay on SF-268; > 100 µM (inactive) in the assay with M14; > 100 µM (inactive) in the assay on K562. Moreover, the GI50 in the assay with DU-145, in the assay with CAKI-1, in the assay on OVCAR-5, with UACC-62, with RXF 393 and with NCI-H460 was > 100 µM (inactive) in each case. Further, the GI50 with HOP-62, in the assay on SF-539, in the assay with U-251 and in the assay with MCF7 was > 100 µM (inactive) throughout.
Consider `c1cc(-c2ccsc2-c2ccsc2)cs1`, for which the GI50 with A549 is 46.3 µM (inactive); in the assay with HCT-15 it was 47.8 µM; with MDA-MB-435, 36.6 µM (inactive); with SF-268, > 86.1 µM (inactive); with RPMI-8226, 29.9 µM (inactive); in the assay on M14, > 100 µM (inactive). The GI50 is > 27.2 µM (inactive) in the assay on K562; > 100 µM (inactive) in the assay on CAKI-1; 50.1 µM (inactive) in the assay with CCRF-CEM; > 100 µM (inactive) in the assay on OVCAR-5; > 88.9 µM (inactive) in the assay with UACC-62; 27.4 µM (inactive) with RXF 393. The GI50 in the assay on NCI-H460 was > 100 µM (inactive); in the assay with LOX IMVI it was 55.3 µM (inactive); in the assay on HOP-62, 77.3 µM (inactive); in the assay with SF-539 it was > 100 µM (inactive); in the assay on U-251 it was > 100 µM (inactive); in the assay on MCF7 it was > 60.4 µM (inactive).
Regarding `CCOC(=O)/C=C1\Nc2ccccc2C(c2ccccc2)=NC1OC(C)=O` (configuration not stated), the GI50 in the assay with A549 was > 100 µM (inactive); in the assay with HCT-15, > 100 µM; in the assay on SF-268, > 100 µM (inactive); with RPMI-8226, 76.6 µM (inactive); with M14 it was > 100 µM (inactive); with K562, 97.1 µM (inactive). The GI50 was 94.6 µM (inactive) with CAKI-1; > 100 µM (inactive) with CCRF-CEM; 79.6 µM (inactive) with UACC-62; > 100 µM (inactive) in the assay on NCI-H460; > 100 µM (inactive) in the assay on LOX IMVI; > 100 µM (inactive) in the assay with HOP-62. Besides, the GI50 in the assay on SF-539 and with U-251 was > 100 µM (inactive) in each case.
Consider `CC(C)C(C/C=C1/CC(CO)(COC(=O)c2ccccc2)OC1=O)C(C)C` (configuration not stated), for which the GI50 with A549 is 12.4 µM (inactive); in the assay on HCT-15, 20 µM; in the assay with MDA-MB-435 it was 26 µM (inactive); in the assay on SF-268 it was 16.8 µM (inactive); in the assay on M14, 15.7 µM (inactive); in the assay with K562, 9.04 µM (inactive). Further, the GI50 with CAKI-1 is 14.6 µM (inactive); with CCRF-CEM it was 16.8 µM (inactive); in the assay with OVCAR-5, 16.9 µM (inactive); in the assay on UACC-62, 23.9 µM (inactive); in the assay with RXF 393 it was 16.7 µM (inactive); with NCI-H460, 17 µM (inactive). In addition, the GI50 in the assay with LOX IMVI is 23.8 µM (inactive); with HOP-62, 9.93 µM (inactive); in the assay on SF-539, 4.69 µM (inactive); with U-251 it was 16.1 µM (inactive); in the assay with MCF7, 19.6 µM (inactive).
Consider `O=C(O)c1ccc(Nc2nc3cc(C(F)(F)F)ccc3nc2C(=O)O)cc1`, for which the GI50 in the assay on HCT-15 is > 100 µM; in the assay with MDA-MB-435, > 100 µM (inactive); in the assay on SF-268, 93.3 µM (inactive); in the assay with K562, > 100 µM (inactive); with DU-145 it was > 100 µM (inactive); with CAKI-1, > 100 µM (inactive). The GI50 in the assay on OVCAR-5, in the assay on RXF 393, in the assay on NCI-H460, in the assay on LOX IMVI, in the assay with HOP-62 and in the assay with U-251 was > 100 µM (inactive) throughout. The GI50 in the assay with MCF7 is > 100 µM (inactive).
For `N/N=C(\C(=O)Nc1ccc(Cl)cc1Cl)C(c1cnc2ccccc2n1)[N+](=O)[O-]` (configuration not stated), the GI50 in the assay with A549 was > 100 µM (inactive); with HCT-15, > 100 µM; with MDA-MB-435 it was > 100 µM (inactive); in the assay with SF-268, > 100 µM (inactive); in the assay on RPMI-8226 it was > 100 µM (inactive); in the assay on M14, > 100 µM (inactive). Also, the GI50 in the assay with K562, in the assay with CAKI-1, with CCRF-CEM, with OVCAR-5, in the assay with UACC-62 and in the assay on RXF 393 was > 100 µM (inactive) throughout. Also, the GI50 in the assay on NCI-H460, in the assay with LOX IMVI, in the assay on HOP-62, with SF-539, in the assay with U-251 and in the assay on MCF7 was > 100 µM (inactive) each time.
Consider `CC1=NN(c2nc(N)nc(C(C)Sc3cc(Cl)c(C)cc3S(N)(=O)=O)n2)C(C)(C)C1` (configuration not stated), for which the GI50 is > 10 µM (inactive) with A549; > 10 µM in the assay on HCT-15; > 10 µM (inactive) with SF-268; > 10 µM (inactive) in the assay on RPMI-8226; > 10 µM (inactive) in the assay with M14; > 10 µM (inactive) in the assay on K562. Also, the GI50 in the assay on DU-145, in the assay with CAKI-1, in the assay on CCRF-CEM, with OVCAR-5, in the assay with RXF 393 and in the assay with NCI-H460 was > 10 µM (inactive) in each case. In addition, the GI50 with LOX IMVI, in the assay on HOP-62, with SF-539, in the assay with U-251 and in the assay with MCF7 was > 10 µM (inactive) in each case.
On to `COC(=O)CCCc1c(-c2[nH]c3ccccc3c2CCCC(=O)OC)[nH]c2ccccc12`, for which the GI50 in the assay with A549 is > 100 µM (inactive); in the assay on HCT-15 it was > 100 µM; with MDA-MB-435, > 100 µM (inactive); in the assay on SF-268, > 100 µM (inactive); in the assay with RPMI-8226 it was > 100 µM (inactive); with M14, > 100 µM (inactive). Further, the GI50 in the assay with K562, with DU-145, in the assay with CAKI-1, with CCRF-CEM, with OVCAR-5 and in the assay on UACC-62 was > 100 µM (inactive) each time. The GI50 in the assay on RXF 393, in the assay with NCI-H460, with LOX IMVI, with HOP-62, in the assay with SF-539 and with U-251 was > 100 µM (inactive) each time.
For the molecule `O=C(/C=C/c1cccs1)c1ccc(Cl)cc1`, the GI50 in the assay with A549 is > 100 µM (inactive); in the assay with HCT-15, 41 µM; in the assay with SF-268, 50.8 µM (inactive); with RPMI-8226 it was 22.2 µM (inactive); with K562, > 10 µM (inactive); in the assay with DU-145, > 100 µM (inactive). Moreover, the GI50 in the assay with CCRF-CEM is 29.9 µM (inactive); in the assay with OVCAR-5 it was > 100 µM (inactive); with UACC-62, > 100 µM (inactive); with NCI-H460, > 100 µM (inactive); in the assay on HOP-62 it was > 100 µM (inactive); with SF-539, > 100 µM (inactive). Moreover, the GI50 is > 100 µM (inactive) in the assay on U-251 and 21.9 µM (inactive) with MCF7.
With `CC(=O)/C(=C/NC(=S)N/N=C1\C(=O)Nc2ccccc21)C(=O)Nc1ccccc1C`, the GI50 is > 100 µM (inactive) with A549; > 100 µM in the assay with HCT-15; > 100 µM (inactive) in the assay on MDA-MB-435; > 100 µM (inactive) in the assay on SF-268; > 100 µM (inactive) in the assay on M14; 47.1 µM (inactive) with DU-145. For the same molecule, the GI50 in the assay with CAKI-1 was 47.4 µM (inactive); in the assay with OVCAR-5, > 100 µM (inactive); in the assay on UACC-62, > 100 µM (inactive); with RXF 393, 83.8 µM (inactive); in the assay on NCI-H460, > 100 µM (inactive); in the assay on LOX IMVI, 63.8 µM (inactive). In addition, the GI50 with HOP-62, in the assay on SF-539 and with U-251 was > 100 µM (inactive) each time.
